Measured values reported in patent US20200061026A1, “METHODS AND COMPOSITIONS FOR PREVENTING VECTOR-BORNE DISEASE TRANSMISSION” (The Scripps Research Institute, priority 2016, published 2020).
Several values for one entry are separate records, joined by “and”; a condition that tells them apart may be missing. Identical values can stand only once. Like-named read-outs stand apart in the source and are kept apart here.

Tests used:
Brugia pahangi = Brugia pahangi microfilariae viability (Cell-Titer Glo); assay type: in vivo
Method: Microfilariae of Brugia pahangi were kept in 75 cm^2 flasks in RPMI-1640 with fetal bovine serum as described previously (Plos Negl. Trop. Dis. 2012, e1494). To test viability, 384-well plates were filled with 250 microfilariae per well. Serial dilutions of isoxazolines, ivermectin, moxidectin and equivalent vehicle concentration (0.5% DMSO) were added to the wells. Seventy two hours after treatment, viability was assessed with the Cell-Titer Glo reagent (Promega). FIG. 13A represents a plot of viable Brugia pahangi versus fluralaner, afoxolaner, or control compound (moxidectin and ivermectin) concentration as assessed at 24 hours. FIG. 13B represents a plot of viable Brugia pahangi versus fluralaner, afoxolaner, or control compound (moxidectin and ivermectin) concentration as assessed at 48 hours. FIG. 13C represents a plot of viable Brugia pahangi versus fluralaner, afoxolaner, or control compound (moxidectin and ivermectin) concentration as assessed at 72 hours.

[1] = Dog pharmacokinetics, single oral dose; assay type: in vivo; details: level at Day 45
[2] = Plasma stability, cynomolgus monkey; assay type: in vitro ADME; details: cynomolgus monkey (cy)
Text: (§1) The stability of compounds in mouse (ms), rat (r), dog (d), cynomolgus monkey (cy), and human (hu) plasma is shown in Table 10 by the percentages of compounds remaining at two hours.

Plasma stability, human = assay type: in vitro ADME; details: human (hu)
Text: as §1

Plasma stability, rat = assay type: in vitro ADME; details: rat (r)
Text: as §1

[3] = cited from earlier work
Plasma stability, mouse = assay type: in vitro ADME; details: mouse (ms)
Text: as §1

[4] = Further in vitro degradation assay, rat primary hepatocytes
Method: (§2) In a further assay, isoxazolines (fluralaner and afoxolaner) and control compounds (7-Ethoxycoumarin and 7-Hydroxycoumarin [Sigma]) were dissolved in DMSO at 10 and 30 mM respectively, then diluted first 20-fold with 45% methanol in water and a further 10-fold in pre-warmed Williams' Medium E. Cryopreserved human, dog and rat hepatocytes (In Vitro Technologies) were thawed, isolated by percoll gradient and suspended in Williams' Medium E. Cells were then dispensed into the wells of 96-well plates containing 10 μL of diluted compounds, to reach a final concentration of 0.5×10^6 cells/mL and 1 μM of isoxazolines or 3 μM of control. After an incubation at 37° C. of 0, 15, 30, 60 or 90 minutes, the reaction was stopped with acetonitrile. The samples were then shaken for 10 minutes at 500 rpm and centrifuged at 3220 g for 20 minutes. Supernatants were transferred and stored at 4° C. until LC-MS-MS analysis.

[5] = Further in vitro degradation assay, dog primary hepatocytes
Method: as §2

Anopheles stephensi = assay: Standard membrane feeding assay, Anopheles stephensi; assay type: in vivo; details: for IC50: Anopheles stephensi; for killing of mosquitos (in words): lethality 1, 2 or 8 days after exposure; for whole blood IC99: mosquitocidal
Method: Mosquito colonies utilized in the examples were generally maintained as described: The colony of Anopheles stephensi (Sind-Kasur Nijmegen strain) was maintained at the Radboud University Medical Center, Nijmegen, The Netherlands, by 30° C. and 70-80% humidity and on a 12/12 hour day/night cycle. The Anopheles gambiae strains Kisumu and Tiassalé and the Aedes aegypti strains New Orleans and Cayman were reared at the Liverpool Insect Testing Establishment, Liverpool, UK. Kisumu is an insecticide susceptible lab strain. New Orleans was originally colonized by the Centers for Disease Control and Prevention. The Tiassalé strain was colonized from Southern Cote D'Ivoire where resistance to all classes of insecticide is found and the Cayman strain was colonized from Grand Cayman, where Aedes aegypti are highly resistant to DDT and pyrethroid insecticides. Both resistant strains are routinely selected with insecticides to ensure the maintenance of resistance, 0.75% permethrin for Cayman and 0.05% deltamethrin for Tiassalé, and profiled for resistance to a range of insecticides, including 4% dieldrin, to which Tiassalé is resistant but Cayman is susceptible.
Isoxazoline compounds fluralaner or afoxolaner were reconstituted in 50% human serum and 50% red blood cells and administered to adult Anopheles stephensi mosquitos via standard membrane feeding. Lethality was assessed 1, 2 or 8 days after exposure. FIG. 2A represents a plot of viable Anopheles stephensi versus fluralaner concentration at each day of assessment. FIG. 2B represents a plot of viable Anopheles stephensi versus afoxolaner concentration at each day of assessment. […] The IC50 values of each compound for Anopheles death were determined by logistic regression using a least squares method to find the best fit and are shown in Table 1. IC50 values were calculated by applying a four-parameter logistic regression model using a least-squares method to find the best fit using the Graphpad Prism 5.0 software package.
FIG. 2C represents a plot of viable Anopheles stephensi versus fluralaner concentration at each time of assessment. FIG. 2D represents a plot of viable Anopheles stephensi versus afoxolaner concentration at each time of assessment. FIG. 2E represents plots of viable Anopheles stephensi versus concentration of (S)- and (R)-enantiomers of afoxolaner at each time of assessment. […] The IC50 (M) concentrations are also shown for FIGS. 2C and 2D.

Plasma stability, dog = assay type: in vitro ADME; details: dog (d)
Text: as §1

Aedes aegypti (Cayman) = assay: Membrane feeding, Aedes aegypti Cayman strain; assay type: in vivo; details: read-out: IC50 [95% CI]
[6] = Brain homogenate binding assay (equilibrium dialysis)
Method: Briefly, frozen tissue homogenate (homogenized with buffer at a certain volume ratio) was used as a test matrix. The tissue homogenate was purchased from Bioreclamation (Hicksville, N.Y., USA) or prepared by WuXi AppTec.
Isoxazoline compounds were spiked into blank tissue homogenate at the test concentration. Triplicate samples were used.
An appropriate volume of spiked tissue sample was removed before incubation for recovery calculation. An aliquot (e.g., 150 μL) of matrix sample was added to the donor side of the chamber (donor chamber) in a dialyzer plate (HTD dialysis device or RED device) and a certain amount of dialysis buffer was loaded to the other side of the chamber (receiver chamber). Triplicate incubations were performed (or other replicate number according to specific requirement).
The dialyzer plate was placed into a humidified incubator with 5% CO2 and incubated at 37° C. for appointed time (the general incubation time is 4-6 h).
After incubation, samples were removed from the donor side as well as the receiver side.
The samples were matched with appropriate amount of the opposite blank matrix (tissue homogenate or buffer). […]
The samples were analyzed by LC-MS/MS. Test compound concentrations in matrix and buffer samples were assessed based on the peak area ratios (PAR) of analyte/internal standard (no standard curve).

## O=C(CNC(=O)c1ccc(C2=NO[C@](c3cc(Cl)cc(C(F)(F)F)c3)(C(F)(F)F)C2)c2ccccc12)NCC(F)(F)F (racemic) [Afoxolaner, afoxolaner]
Brugia pahangi
  killing of Brugia pahangi (in words): effective in killing Brugia pahangi
[1]
  Dog PK (PO): ~600 nM at Day 45
[2]
  Plasma stability % remaining @ 2 h: 84% (cy);
Plasma stability, human
  Plasma stability % remaining @ 2 h: 84% (hu)
Plasma stability, rat
  Plasma stability % remaining @ 2 h: 61% (r);
[3]
  embryo-fetal development in rats: unaffected
Plasma stability, mouse
  Plasma stability % remaining @ 2 h: 83% (ms);
[4]; hepatocytes
  half-life: > 3.61 h
  hepatocyte CLint: < 6.4 µL/min/1e6 cells
[5]; hepatocytes
  half-life: > 3.61 h
  hepatocyte CLint: < 6.4 µL/min/1e6 cells
Anopheles stephensi; 24 h, read-out: IC50 (Anopheles death)
  IC50: 107 nM
Anopheles stephensi; 24 h, read-out: IC50 [95% CI]
  IC50: 107 nM
Anopheles stephensi; 48 h, read-out: IC50 (Anopheles death)
  IC50: 34 nM
Anopheles stephensi; 192 h, read-out: IC50 (Anopheles death)
  IC50: 14 nM
Anopheles stephensi
  killing of mosquitos (in words): effective at killing the mosquitos in a dose-dependent manner
  whole blood IC99: 233 nM and 146 ng/mL
Plasma stability, dog
  Plasma stability % remaining @ 2 h: 100% (d);
Aedes aegypti (Cayman); 24 h
  IC50: 90.2 nM

## O=C(CNC(=O)c1ccc(C2=NO[C@@](c3cc(Cl)cc(C(F)(F)F)c3)(C(F)(F)F)C2)c2ccccc12)NCC(F)(F)F [(S)-afoxolaner]
[6]
  Brain homogenate % binding: >99.9%

## O=C(CNC(=O)c1ccc(C2=NO[C@@](c3cc(Cl)cc(Cl)c3)(C(F)(F)F)C2)c2ccccc12)NCC(F)(F)F [(S)-4-(5-(3,5-dichlorophenyl)-5-(trifluoromethyl)-4,5-dihydroisoxazol-3-yl)-N-(2-oxo-2-((2,2,2-trifluoroethyl)amino)ethyl)-1-naphthamide]
[6]
  Brain homogenate % binding: >99.9%

## Cc1cc(C2=NO[C@](c3cc(Cl)cc(Cl)c3)(C(F)(F)F)C2)ccc1C(=O)NCC(=O)NCC(F)(F)F [Fluralaner, fluralaner]
Brugia pahangi
  killing of Brugia pahangi (in words): effective in killing Brugia pahangi
[3]
  embryo-fetal development in rats: unaffected
[4]; cryopreserved hepatocytes
  half-life: > 3.61 h
  hepatocyte CLint: < 6.4 µL/min/1e6 cells
[5]; cryopreserved hepatocytes
  half-life: > 3.61 h
  hepatocyte CLint: < 6.4 µL/min/1e6 cells
Anopheles stephensi; 24 h, 1 day after exposure, read-out: IC50 (Anopheles death)
  IC50: 54 nM
Anopheles stephensi; 48 h, 2 days after exposure, read-out: IC50 (Anopheles death)
  IC50: 42 nM
Anopheles stephensi; 192 h, 8 days after exposure, read-out: IC50 (Anopheles death)
  IC50: 37 nM
Anopheles stephensi; 24 hours after the blood meal, read-out: IC50 [95% CI]
  IC50: 56 nM
Anopheles stephensi
  killing of mosquitos (in words): effective at killing the mosquitos in a dose-dependent manner
  whole blood IC99: 119 nM and 66 ng/mL
Aedes aegypti (Cayman); 24 hours after the blood meal, Cayman strain
  IC50: 35.8 nM
